Results on one molecule are retold here after patent US4389414A, “Prostaglandin compositions” (Syntex (U.S.A.) Inc., priority 1981, dated 1983).

Values joined by “and” are separate entries in the source; they are usually repeats but may differ in a detail not shown here. Identical values can stand only once.

This data set is described as follows: Absorption rate of carbon-14 Compound A from different vehicles after SQ or IM injection (Example 2, Table I). The format is in vivo, rats. The following applies: for Relative Percent Absorption: compared to aqueous buffer over 6 hours. Here is the method: A series of experiments was carried out to determine the absorption rate of a compound which are useful in the composition of this invention as compared to other compositions which are not included within the scope of the claims of the invention. In each experiment 56 rats were used. Two groups of 27 rats are required for the test formulations and the two remaining rats are used to obtain blank plasma samples. […] Each composition is prepared by dissolving 2.7 milligrams of the compound in 10 milliliters of the solvent. This represents approximately 5 microcuries of carbon 14 and 41 micrograms of dl-9α,11α,15α-trihydroxy-16-phenoxy-17,18,19,20-tetranorprosta-4,5,13-trans-trienoic acid (Compound A). Blood samples from each of three rats from each group are obtained by […] at the following time points after injection: 15 minutes, 30 minutes, 45 minutes, 60 minutes, 2 hours, 3 hours, 4 hours, 5 hours and 6 hours. The two untreated rats are sampled to obtain blank plasma sample.
*Compared to aqueous buffer over 6 hours.

Setting [1] is: vehicle 90% Glycerin H2O, SQ, .15 ml, 5 μCi.
[2] abbreviates: vehicle Aq. Buffer, IM, .15 ml, 5 μCi.
The mark [3] stands for this setting: vehicle Aq. Buffer, SQ, .15 ml, 5 μCi.
The mark [4] stands for this setting: vehicle Glycerin, SQ, .15 ml, 5 μCi.
Where [5] appears, read: vehicle PEG 400, IM, .15 ml, 5 μCi.
Where [6] appears, read: vehicle PEG 400, SQ, .15 ml, 5 μCi.
Where [7] appears, read: vehicle PEG 400, SQ, .30 ml, 10 μCi.

Turning to `O=C(O)CCC=C=CC[C@@H]1[C@@H](/C=C/[C@@H](O)COc2ccccc2)[C@H](O)C[C@@H]1O` (relative stereo) [Compound A, dl-9α,11α,15α-trihydroxy-16-phenoxy-17,18,19,20-tetranorprosta-4,5,13-trans-trienoic acid], the “Absorption Rate Constant Ka” value was 6.5 hr^1 under setting [1]; 10.14 hr^1 under setting [2]; 10.14 hr^1 under setting [3]; 5.0 hr^1 under setting [4]; 3.7 hr^1 under setting [5]; 3.7 hr^1 under setting [6]. In addition, the “Absorption Rate Constant Ka” value under setting [7] was 3.7 hr^1. Also, the “Relative Percent Absorption” value is 51.5% under setting [1]; 100% under setting [2]; 60.9% under setting [3]; 50.4% under setting [4]; 35.5% under setting [5]; 27.6% and 31.4% under setting [6]. Moreover, the “Relative Percent Absorption” value under setting [7] came out at 26.2%.
